Experimental data published in ChEMBL document CHEMBL1275523 (Antimicrob Agents Chemother, 2008).

Key:
Format in all cases: cell-based
Sialidase-3 [1] = molecular target: T1, Sialidase-3 (Homo sapiens, UniProt Q9UQ49); assay: Inhibition of human NEU3 expressed in HEK293 cells by fluorometric high-performance liquid chromatography using ganglioside GM3 substrate
T1 sequence (Q9UQ49 whole entry): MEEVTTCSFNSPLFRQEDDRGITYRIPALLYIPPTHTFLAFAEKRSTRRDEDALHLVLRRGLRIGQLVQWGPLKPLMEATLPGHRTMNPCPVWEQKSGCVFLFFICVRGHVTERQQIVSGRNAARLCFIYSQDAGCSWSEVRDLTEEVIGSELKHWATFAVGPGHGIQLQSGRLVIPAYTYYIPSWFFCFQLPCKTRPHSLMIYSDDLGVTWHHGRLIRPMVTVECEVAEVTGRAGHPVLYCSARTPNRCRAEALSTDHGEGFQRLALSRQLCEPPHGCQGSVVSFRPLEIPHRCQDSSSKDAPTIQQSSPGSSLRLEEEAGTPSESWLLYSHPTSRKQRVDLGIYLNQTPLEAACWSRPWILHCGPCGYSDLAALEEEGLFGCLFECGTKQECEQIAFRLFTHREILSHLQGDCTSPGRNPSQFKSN

Sialidase-1 = Sialidase-1 (Homo sapiens, UniProt Q99519); assay: Inhibition of human NEU1 expressed in HEK293 cells by fluorometric high-performance liquid chromatography using 4MU-NeuAc substrate
Sialidase-3 [2] = molecular target: T1, Sialidase-3; assay: Inhibition of human NEU3 expressed in HEK293 cells by fluorometric high-performance liquid chromatography using 4MU-NeuAc substrate
Sialidase-4 = molecular target: T2, Sialidase-4 (Homo sapiens, UniProt Q8WWR8); assay: Inhibition of human NEU4 expressed in HEK293 cells by fluorometric high-performance liquid chromatography using 4MU-NeuAc substrate
T2 sequence (Q8WWR8 whole entry): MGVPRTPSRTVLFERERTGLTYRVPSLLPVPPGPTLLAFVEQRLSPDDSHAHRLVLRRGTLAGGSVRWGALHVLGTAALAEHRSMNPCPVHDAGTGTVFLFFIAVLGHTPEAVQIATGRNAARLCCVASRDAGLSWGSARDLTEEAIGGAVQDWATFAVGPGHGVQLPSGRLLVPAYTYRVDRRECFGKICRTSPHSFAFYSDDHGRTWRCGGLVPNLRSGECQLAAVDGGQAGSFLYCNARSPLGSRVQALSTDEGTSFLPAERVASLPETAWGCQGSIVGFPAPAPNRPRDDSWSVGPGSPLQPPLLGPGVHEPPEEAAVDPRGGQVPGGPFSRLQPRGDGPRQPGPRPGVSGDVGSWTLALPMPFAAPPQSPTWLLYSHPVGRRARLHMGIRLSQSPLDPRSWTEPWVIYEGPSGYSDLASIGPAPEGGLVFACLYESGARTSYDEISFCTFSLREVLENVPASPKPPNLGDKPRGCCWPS

Structure (SMILES)	IC50 (Sialidase-3 [1]) [µM]	IC50 (Sialidase-1) [µM]	IC50 (Sialidase-3 [2]) [µM]	IC50 (Sialidase-4) [µM]
CC(=O)N[C@H]1[C@H]([C@H](O)[C@H](O)CO)OC(C(=O)O)=C[C@@H]1O [NEU5AC2EN]	70.3			
CC(=O)N[C@H]1[C@H]([C@H](O)[C@H](O)CO)OC(C(=O)O)=C[C@@H]1N=C(N)N [ZANAMIVIR]		2710		
CCOC(=O)C1=C[C@@H](OC(CC)CC)[C@H](NC(C)=O)[C@@H](N)C1 [OSELTAMIVIR]		> 10000	> 10000	> 10000
